For the assay, the target named is T1, GATA4–NKX2-5 transcriptional synergy (Mus musculus, UniProt P42582+Q08369).
T1 construct: expressed in transfected cells; host or cells: COS-1
As to the kind of experiment: GATA4–NKX2-5 transcriptional synergy luciferase reporter assay (3xNKE reporter, COS-1 cells). Format: cell-based. How it is done: To screen compounds for the GATA4–NKX2-5 interaction, we have developed a luciferase reporter assay based on their property to activate gene transcription synergistically through the NKX2-5 binding site on DNA.[28] In this assay, we transfected mammalian COS-1 cells with protein expression vectors for GATA4 and NKX2-5 proteins together with artificial luciferase reporter vector containing three high affinity binding sites for NKX2-5 (NKE). […] All 257 compounds were tested in two concentrations, 3 and 10 μM. Compounds either inhibited, enhanced, or had no effect on the GATA4–NKX2-5 transcriptional synergy. To investigate the selectivity of the active compounds, we tested their effects on NKX2-5 transcriptional activity by using the same luciferase reporter vector as in transcriptional synergy assay with three NKE sites (Figure 3B). Furthermore, we used GATA luciferase reporter assay to examine if compounds have an effect on GATA4 transcriptional activity. In this assay, we cotransfected the cells with a GATA4 protein expression vector and a reporter vector with tandem GATA4 binding sites (Figure 3C). Previously we have reported that compound 1 inhibited the GATA4–NKX2-5 transcriptional synergy at micromolar concentrations (IC50 = 3 μM).[29]
The plasmids expressing mouse GATA4 protein, pMT2-GATA4, and empty pMT2 were gifts from D. B. Wilson (Department of Pediatrics, St. Louis Children’s Hospital, St. Louis, MO).[44] The plasmids expressing mouse NKX2-5 protein, pMT2-NKX2-5, have been described earlier.[28] The luciferase reporter plasmid used in GATA4–NKX2-5 transcriptional synergy assay and NKX transcriptional assay, pGL3-3xHA, contains three high affinity binding sites for NKX2-5.[28] The luciferase reporter plasmid used in GATA transcriptional assay, NP-112, contains tandem GATA-sites and minimal promoter of rat brain natriuretic peptide (BNP) gene.[45] The pGL3-BNP luciferase reporter containing −534/+4 bp rat BNP proximal promoter described previously was used in hypertrophy assay.[46]
The primary screening assay of compounds’ effect on GATA4–NKX2-5 transcriptional synergy and COS-1 cell culturing has been described earlier.[33] […] (Kinnunen et al., unpublished observation). Briefly, COS-1 cells were seeded at 14 000 cells/well in Isoplate-96 microplates (PerkinElmer, Turku, Finland) and grown overnight. The cells were transfected with the luciferase reporter plasmid pGL3-3xHA 100 ng/well and equal amounts of expression plasmids pMT2-GATA4 and pMT2-NKX2-5 total 50 ng/well. To verify the synergistic effect, the cells were transfected with pMT2-GATA4 or pMT2-NKX2-5 25 ng/well, and the total DNA concentration was adjusted to 50 ng/well with empty pMT2 plasmid. In NKX2-5 and GATA4 luciferase reporter assays, the cells were transfected with reporter plasmid pGL3-3xHA or NP-112 (100 ng/well) and expression plasmid pMT2-NKX2-5 or pMT2-GATA4 (25 ng/well). The ratio of DNA/transfection reagent (Fugene 6, Promega) was 1:3 in all assays. The transfections were performed in serum and antibiotics free media for 6 h. The cells were treated with compounds or vehicle (0.1% DMSO) for 24 h, and the luminescence was measured using neolite Reporter Gene Assay System (PerkinElmer, Turku, Finland) and Victor2 plate reader (PerkinElmer, Turku, Finland).
Raw luciferase data were analyzed in Excel, and clear outliers were removed from triplicates by using the Grubb’s test. Data analysis was performed using R.[49] The luciferase data were first normalized on the basis of the combined mean value of controls. For data visualization and creation of figures, the following R packages were used: ggplot2, cowplot, RColorBrewer, and pheatmap. The heatmaps of the toxicity data were produced with GraphPad Prism 7.00 (GraphPad Software, La Jolla, CA). Statistical significance of luciferase reporter assay data was evaluated by randomized block analysis of variance followed by Dunnett’s post hoc test. […]

[1] abbreviates: COS-1, compound at 3 µM, luciferase reporter activity, % of control.
Setting [2] is: COS-1, compound 3 µM, luciferase reporter activity, spread in separate STDEV column.
The mark [3] stands for this setting: COS-1, 3 µM, luciferase reporter activity, % of control.
The mark [4] stands for this setting: 3 µM compound, GATA4–NKX2-5 transcriptional synergy reporter, COS-1 cells.
The mark [5] stands for this setting: 10 µM compound, GATA4–NKX2-5 transcriptional synergy reporter, COS-1 cells.
[6] abbreviates: COS-1, compound 3 µM, luciferase reporter activity relative to control.
[7] abbreviates: COS-1, compound 10 µM, luciferase reporter activity relative to control.

T1 sequence (Q08369 whole entry): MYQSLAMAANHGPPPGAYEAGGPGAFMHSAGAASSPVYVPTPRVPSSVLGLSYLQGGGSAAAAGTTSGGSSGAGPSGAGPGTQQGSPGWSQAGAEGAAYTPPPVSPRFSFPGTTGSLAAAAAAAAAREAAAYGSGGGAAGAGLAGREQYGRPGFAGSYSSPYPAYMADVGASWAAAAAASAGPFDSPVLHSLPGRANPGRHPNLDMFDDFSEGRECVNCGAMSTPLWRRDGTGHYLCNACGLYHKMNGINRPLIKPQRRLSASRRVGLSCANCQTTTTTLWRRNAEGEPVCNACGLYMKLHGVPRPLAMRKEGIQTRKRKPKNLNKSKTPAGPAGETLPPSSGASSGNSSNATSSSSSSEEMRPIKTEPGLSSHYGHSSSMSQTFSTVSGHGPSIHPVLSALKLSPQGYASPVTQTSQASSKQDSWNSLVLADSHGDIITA
T1 sequence (P42582 whole entry): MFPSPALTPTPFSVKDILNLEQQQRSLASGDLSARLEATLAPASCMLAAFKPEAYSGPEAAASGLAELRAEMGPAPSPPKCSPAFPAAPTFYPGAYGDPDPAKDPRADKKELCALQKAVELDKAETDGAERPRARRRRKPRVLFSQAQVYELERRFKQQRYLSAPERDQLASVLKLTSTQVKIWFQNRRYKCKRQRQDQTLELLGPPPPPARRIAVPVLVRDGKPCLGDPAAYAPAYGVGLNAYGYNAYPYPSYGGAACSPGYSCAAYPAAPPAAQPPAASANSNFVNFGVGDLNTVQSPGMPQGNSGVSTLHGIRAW

Regarding `CCC(O)c1ccc(OCc2c(-c3ccccc3)noc2C)cc1` (racemic) [Compound 34d, (rac)-1-[4-[(5-Methyl-3-phenylisoxazol-4-yl)methoxy]phenyl]propan-1-ol], the activity at 3 µM under setting [1] is 96.5%. Take `Cc1onc(-c2ccccc2)c1C(=O)Nc1ccc2c(c1)C(=O)CC2` [Compound 4a, 5-Methyl-N-(3-oxo-2,3-dihydro-1H-inden-5-yl)-3-phenylisoxazole-4-carboxamide]: the activity at 3 µM under setting [2] was 103%. `CCN(CCO)c1ccc(NC(=O)c2c(-c3ccccc3)noc2C)cc1` [Compound 4b]: under setting [1], the activity at 3 µM amounted to 93.7%. With `CCN(CC)c1ccc(NC(=O)c2c(-c3ccccc3)noc2C)cc1Cl` [Compound 4c], the activity at 3 µM under setting [2] came to 92.6%. As for `Cc1onc(-c2ccccc2)c1C(=O)Nc1ccc(N(C)C)cc1` [Compound 4d, N-[4-(Dimethylamino)phenyl]-5-methyl-3-phenylisoxazole-4-carboxamide], the activity at 3 µM under setting [3] was found to be 88.1%.

With `Cc1cc(NC(=O)c2c(-c3ccccc3)noc2C)ccc1C(C)C` [Compound 4e], the activity at 3 µM under setting [3] is 95.2%. `Cc1onc(-c2ccccc2)c1C(=O)Nc1ccc(OCCN2CCOCC2)cc1` [Compound 4h]: the activity at 3 µM under setting [3] came to 89.8%. `CC[N+](C)(c1ccc(NC(=O)c2c(-c3ccccc3)noc2C)cc1)C(C)C` (centres unmarked) [Compound 7, N-Ethyl-N-isopropyl-N-methyl-4-(5-methyl-3-phenylisoxazole-4-carboxamido)benzenaminium Iodide]: the activity at 3 µM under setting [1] was 88.4%. Still for that read-out and setting: the value for `CCN(c1ccc(NC(=O)c2c(-c3ccccc3)noc2C)cc1[N+](=O)[O-])C(C)C` [Compound 8, N-[4-[Ethyl(isopropyl)amino]-3-nitrophenyl]-5-methyl-3-phenylisoxazole-4-carboxamide] was 76.3%. For `CCN(c1ccc(NC(=O)c2c(-c3ccccc3)noc2C)cc1N)C(C)C` [Compound 9, N-[3-Amino-4-[ethyl(isopropyl)amino]phenyl]-5-methyl-3-phenylisoxazole-4-carboxamide], under setting [1], the activity at 3 µM turned out to be 92.6%. `Cc1onc(-c2ccccc2)c1C(=O)Nc1ccc(C(=O)OCC#N)cc1` [Compound 10a, Cyanomethyl 4-(5-Methyl-3-phenylisoxazole-4-carboxamido)benzoate]: the activity at 3 µM under setting [4] turned out to be 95%. As for `Cc1onc(-c2ccccc2)c1C(=O)Nc1ccc(C(=O)OCCN(C)C)cc1` [Compound 10d], the activity at 3 µM under setting [2] came to 99.6%. For the same compound, the activity at 10 µM (COS-1, compound 10 µM, luciferase reporter activity, spread in separate STDEV column) was 115%. On to `C#Cc1ccc(NC(=O)c2c(-c3ccccc3)noc2C)cc1` [Compound 15, N-(4-Ethynylphenyl)-5-methyl-3-phenylisoxazole-4-carboxamide], for which the activity at 3 µM under setting [4] was found to be 93.2%. As to `CCN(CC)c1ccc(N(Cc2c(-c3ccccc3)noc2C)C(C)=O)cc1` [Compound 16, N-[4-(Diethylamino)phenyl]-N-[(5-methyl-3-phenylisoxazol-4-yl)methyl]acetamide], under setting [4], the activity at 3 µM turned out to be 93.1%.

As for `CCN(CC)c1ccc(/N=C/c2c(-c3ccccc3)noc2C)cc1` [Compound 19, (E)-N^1,N^1-Diethyl-N^4-[(5-methyl-3-phenylisoxazol-4-yl)methylene]benzene-1,4-diamine], the activity at 3 µM under setting [4] was determined as 102%. Besides, the activity at 10 µM under setting [5] amounted to 99.7%.

Turning to `CCN(CC)c1ccc(NCc2c(-c3ccccc3)noc2C)cc1` [Compound 20, N^1,N^1-Diethyl-N^4-[(5-methyl-3-phenylisoxazol-4-yl)methyl]benzene-1,4-diamine], under setting [4], the activity at 3 µM was 85.3%. Under setting [5], the activity at 10 µM came out at 104%. `CCN(CC)c1ccc(NS(=O)(=O)c2c(-c3ccccc3)noc2C)cc1` [Compound 21, N-[4-(Diethylamino)phenyl]-5-methyl-3-phenylisoxazole-4-sulfonamide]: the activity at 3 µM under setting [6] amounted to 104%. Regarding `Cc1onc(-c2ccccc2)c1COc1ccc([N+](=O)[O-])cc1` [Compound 21b], the activity at 3 µM under setting [3] is 94%.

Turning to `CCN(CC)c1ccc(NC(=S)c2c(-c3ccccc3)noc2C)cc1` [Compound 23, N-[4-(Diethylamino)phenyl]-5-methyl-3-phenylisoxazole-4-carbothioamide], under setting [1], the activity at 3 µM came out at 90.6%. As for `CCN(CC)c1ccc(/N=C(\SC)c2c(-c3ccccc3)noc2C)cc1` [Compound 24a], the activity at 3 µM under setting [1] worked out at 72.7%. For `CCN(CC)c1ccc(/N=C(\SCCF)c2c(-c3ccccc3)noc2C)cc1` [Compound 24b], under setting [1], the activity at 3 µM was 122%. Moreover, where the note is “COS-1, compound at 10 µM, luciferase reporter activity, % of control”, the activity at 10 µM is 108%. On to `CCN(CC)c1ccc(N(CCF)C(=O)c2c(-c3ccccc3)noc2C)cc1` [Compound 25b], for which the activity at 3 µM under setting [6] came to 81.6%. For the compound `CCN(CC)c1ccc(N(Cc2ccccc2)C(=O)c2c(-c3ccccc3)noc2C)cc1` [Compound 25c], the activity at 3 µM under setting [3] was 80.2%.

As for `CCN(CC)c1ccc(N(C)C(=S)c2c(-c3ccccc3)noc2C)cc1` [Compound 26], the activity at 3 µM under setting [6] was determined as 92.9%. As to `CCN(CC)c1ccc(C(=O)Nc2c(-c3ccccc3)noc2C)cc1` [Compound 27], under setting [1], the activity at 3 µM is 98.5%. For `CCN(CC)c1ccc(CN(C)c2c(-c3ccccc3)noc2C)cc1` [Compound 30a, N-[4-(Diethylamino)benzyl]-N,5-dimethyl-3-phenylisoxazol-4-amine], under setting [6], the activity at 3 µM was 103%. As to `CCN(CC)c1ccc(CN(C(=O)Nc2ccc(C#N)cc2)c2c(-c3ccccc3)noc2C)cc1` [Compound 30d], the activity at 3 µM under setting [6] stood at 90%.

For the compound `CCN(CC)c1ccc(/C=N/c2c(-c3ccccc3)noc2C)cc1` [Compound 31, (E)-N-[4-(Diethylamino)benzylidene]-5-methyl-3-phenylisoxazol-4-amine], the activity at 3 µM under setting [6] was 94.1%.

Turning to `CCCOC(=O)c1ccc(OCc2c(-c3ccccc3)noc2C)cc1` [Compound 34c, Propyl 4-[(5-Methyl-3-phenylisoxazol-4-yl)methoxy]benzoate], the activity at 3 µM under setting [6] came to 97.7%. For the same compound, under setting [7], the activity at 10 µM is 107%. Regarding `Cc1onc(-c2ccccc2)c1COc1ccc(C(=O)OCc2ccoc2)cc1` [Compound 35c], the activity at 3 µM under setting [6] amounted to 114%. Further, the activity at 10 µM under setting [7] worked out at 101%. On to `Cc1onc(-c2ccccc2)c1COc1ccc(C(=O)OCC(C)C)cc1` [Compound 35e], for which the activity at 3 µM under setting [6] came out at 87.7%.

Turning to `Cc1onc(-c2ccccc2)c1COc1ccc(C(=O)N(C)CCCO)cc1` [Compound 36a], the activity at 3 µM under setting [6] is 106%. Further, the activity at 10 µM under setting [7] came out at 105%. Turning to `CCN(CC)C(=O)c1ccc(OCc2c(-c3ccccc3)noc2C)cc1` [Compound 36b], the activity at 3 µM under setting [6] was 79.3%.

In the case of `Cc1onc(-c2ccccc2)c1COc1ccc(C(=O)O)cc1` [Compound 38, 4-[(5-Methyl-3-phenylisoxazol-4-yl)methoxy]benzoic Acid], the activity at 3 µM under setting [6] turned out to be 102%. For the compound `CCN(CC)c1ccc(NC(=O)c2c(-c3ccc([N+](=O)[O-])cc3)noc2C)cc1` [Compound 39a], under setting [3], the activity at 3 µM was determined as 89.2%. Also, where the note is “COS-1, 10 µM, luciferase reporter activity, % of control”, the activity at 10 µM was 99.8%. Take `CCN(CC)c1ccc(NC(=O)c2c(-c3c(Cl)cccc3Cl)noc2C)cc1` [Compound 39e, 3-(2,6-Dichlorophenyl)-N-[4-(diethylamino)phenyl]-5-methylisoxazole-4-carboxamide]: the activity at 3 µM under setting [1] was found to be 88.9%.

Values taken from PMC7076710, “Synthesis, Identification, and Structure–Activity Relationship Analysis of GATA4 and NKX2-5 Protein–Protein Interaction Modulators” (Journal of Medicinal Chemistry, 2019).
